How the values were obtained:
EPO mRNA = assay: mRNA encapsulation rate of mRNA lipid nanoparticles; format: physicochemical; conditions: LNP with neutral lipid DSPC; mixed solution PBS; Lipid/Nucleic acid (wt/wt) 20
Description: (§1) The compounds described in Table 1, the neutral lipid, cholesterol (product name: Cholesterol HP; NIPPON FINE CHEMICAL CO., LTD.), and 1,2-dimyristoyl-rac-glycero-3-(methylpolyoxyethylene 2000) (hereinafter, called DMG-PEG2000) (product name: SUNBRIGHT® GM-020; NOF corporation) were dissolved in ethanol at a molar ratio of ionized lipid:neutral lipid:cholesterol:DMG-PEG2000=50:10:38.5:1.5 mol % such that the total lipid concentration was 12.5 mmol/L, to obtain an oil phase.
(§2) As the neutral lipid, 1,2-distearoyl-sn-glycero-3-phosphocholine (product name: COATSOME® MC-8080; NOF corporation) (hereinafter, DSPC), or L-α-dioleoylphosphatidylethanolamine (hereinafter, DOPE) (product name: COATSOME® MC-8181; NOF corporation) was used.
(§3) EPO mRNA (product name: CleanCap EPO mRNA (5 moU); TriLink) was diluted with 50 mmol/L citrate buffer having a pH 4.0 such that the weight ratio of total lipid concentration to mRNA concentration is about 20:1 to 64:1, thereby obtaining a water phase. Then, the water phase and the oil phase were mixed together using NanoAssemblr (Precision NanoSystems) such that the volume ratio of water phase:oil phase was 3:1. The mixed solution was diluted 2-fold with any of phosphate buffered physiological saline (PBS), water, or a 20 mmol/L Tris buffer solution (pH 7.4) to obtain a dispersion liquid of mRNA lipid nanoparticles. The dispersion liquid was dialyzed with 20 mmol/L Tris buffer solution (pH 7.4) containing 8% sucrose using a dialysis cassette (Slide-A-Lyzer G2, MWCO: 10 kD, Thermo Fisher Scientific) to remove ethanol, thereby obtaining EPO mRNA-encapsulating lipid nanoparticles.
EPO mRNA was diluted with MilliQ water to prepare a diluted sample in 2-fold dilution series from 100 µg/mL to […], and a calibration curve solution was prepared. 50 μL of the calibration curve solution or the mRNA lipid nanoparticles was mixed with 450 μL of methanol to prepare a measurement solution.
The absorbance of each measurement solution at 260 nm and 330 nm was measured using a UV plate reader (Multiskan Go, Thermo Fisher Scientific), the absorbance at 330 nm was subtracted from the absorbance at 260 nm, and the result was defined as the absorbance of each measurement solution. The total […] nucleic acid concentration was calculated from the calibration curve using the absorbance of each sample measurement solution.
The concentration of the outer water phase nucleic acid was quantified by a standard addition method using a QuanT-iT RiboGreen RNA Assay Kit (Thermo Fisher Scientific). First, a 20× TE buffer included in the above kit was diluted with water, thereby obtaining a 1×TE buffer. TE represents Tris/EDTA (ethylenediaminetetraacetic acid). EPO mRNA was diluted with a TE buffer such that the final concentration was 0 to 400 ng/mL to prepare a nucleic acid diluted series. 10 μL of mRNA lipid nanoparticles diluted 5-fold with TE buffer and 90 µL of a nucleic acid dilution series were mixed in a 96-well plate, 100 μL of a Ribogreen reagent diluted 200-fold with TE buffer was added to each well, and then fluorescence (excitation wavelength: 485 nm, fluorescence wavelength: 535 nm) was measured using a fluorescence plate reader (Infinite 200 Pro M nano+, TECAN). From the obtained results, the outer water phase nucleic acid concentration of each measurement solution was calculated according to the standard addition method.
By using the quantification results of the total mRNA concentration and the mRNA concentration in the outer water phase that were obtained through the above steps, the mRNA encapsulation rate of the mRNA lipid nanoparticles was calculated according to the following Equation. […]

[1] = Particle size of EPO mRNA-encapsulating lipid nanoparticles; format: physicochemical; conditions: LNP with neutral lipid DSPC; mixed solution PBS; Lipid/Nucleic acid (wt/wt) 20
Description: as §1, §2, §3
The particle size of the mRNA-encapsulating lipid nanoparticles was measured by 5-fold diluting the dispersion liquid of lipid nanoparticle with phosphate buffered physiological saline (PBS) using a particle size measurement device NanoSaqla (Otsuka Electronics Co., Ltd.).

Row | Compound | Nucleic acid encapsulation rate (%) (EPO mRNA) | Particle size (nm) [1] [nm]
1 | CCCCCC(CCCCC)COC(=O)CCN(CCCC)C(=O)OCCN(CCOC(=O)N(CCCC)CCC(=O)OCC(CCCCC)CCCCC)CCN(CC)CC [Example 6, Bis(2-pentylheptyl) 4,14-dibutyl-9-(2-(diethylamino)ethyl)-5,13-dioxo-6,12-dioxa-4,9,14-triazaheptadecanedioate] | 58 | 183
2 | CCCCCC(CCCCC)COC(=O)CCN(CCCC)C(=O)OCCN(CCCN(CC)CC)CCOC(=O)N(CCCC)CCC(=O)OCC(CCCCC)CCCCC [Example 7, Bis(2-pentylheptyl) 4,14-dibutyl-9-(3-(diethylamino)propyl)-5,13-dioxo-6,12-dioxa-4,9,14-triazaheptadecanedioate] | 73 | 215
3 | CCCCCCCCCC(=O)OCCN(CCOC(=O)CCCCCCCCC)C(=O)OCCN(CCOC(=O)N(CCOC(=O)CCCCCCCCC)CCOC(=O)CCCCCCCCC)CCN(CC)CC [Example 12, 2-(2-(2-(bis(2-decanoyloxyethyl)carbamoyloxy)ethyl-(2-(diethylamino)ethyl)amino)ethoxycarbonyl-(2-decanoyloxyethyl)amino)ethyl decanoate] | 62 | 169
4 | CCCCCC(CCCCC)COC(=O)CCCCN(C(=O)OCCN(CCOC(=O)N(CCCCC(=O)OCC(CCCCC)CCCCC)C(C)C)CCN(CC)CC)C(C)C [Example 13, Bis(2-pentylheptyl) 11-(2-(diethylamino)ethyl)-6,16-diisopropyl-7,15-dioxo-8,14-dioxa-6,11,16-triazahenicosanedioate] | 88 | 188
5 | CCCCCC(CCCCC)COC(=O)CCCCN(C(=O)OCCN(CCCN(CC)CC)CCOC(=O)N(CCCCC(=O)OCC(CCCCC)CCCCC)C(C)C)C(C)C [Example 14, Bis(2-pentylheptyl) 11-(3-(diethylamino)propyl)-6,16-diisopropyl-7,15-dioxo-8,14-dioxa-6,11,16-triazahenicosanedioate] | 97 | 185
6 | CCCCCC(CCCCC)COC(=O)CCCCN(CCC)C(=O)OCCN(CCOC(=O)N(CCC)CCCCC(=O)OCC(CCCCC)CCCCC)CCN(CC)CC [Example 15, Bis(2-pentylheptyl) 11-(2-(diethylamino)ethyl)-7,15-dioxo-6,16-dipropyl-8,14-dioxa-6,11,16-triazahenicosanedioate] | 79 | 238
7 | CCCCCC(CCCCC)COC(=O)CCCCN(CCC)C(=O)OCCN(CCCN(CC)CC)CCOC(=O)N(CCC)CCCCC(=O)OCC(CCCCC)CCCCC [Example 16, Bis(2-pentylheptyl) 11-(3-(diethylamino)propyl)-7,15-dioxo-6,16-dipropyl-8,14-dioxa-6,11,16-triazahenicosanedioate] | 93 | 187
8 | CCCCCC(CCCCC)COC(=O)CCCCN(CC(C)C)C(=O)OCCN(CCOC(=O)N(CCCCC(=O)OCC(CCCCC)CCCCC)CC(C)C)CCN(CC)CC [Example 18, Bis(2-pentylheptyl) 11-(2-(diethylamino)ethyl)-6,16-diisobutyl-7,15-dioxo-8,14-dioxa-6,11,16-triazahenicosanedioate] | 43 | 224
9 | CCCCCC(CCCCC)COC(=O)CCCCN(CCCC)C(=O)OCCN(CCOC(=O)N(CCCC)CCCCC(=O)OCC(CCCCC)CCCCC)CCN(CC)CC [Example 21, Bis(2-pentylheptyl) 6,16-dibutyl-11-(2-(diethylamino)ethyl)-7,15-dioxo-8,14-dioxa-6,11,16-triazahenicosanedioate] | 64 | 230

Source: patent US20250345459A1, “COMPOUND OR SALT THEREOF, LIPID COMPOSITION, PHARMACEUTICAL COMPOSITION, AND DELIVERY CARRIER” (FUJIFILM Corporation, priority 2023, published 2025)
